Results: ChEMBL document CHEMBL1152881, “A heterocyclic molecule with significant activity against dengue virus” (Bioorg Med Chem Lett, 2009)
≈ marks a conversion by molar mass, not a printed value. Calls of active or inactive are those of the source. No cut-off for these calls is given here.

What was measured:
Yellow fever virus = assay: Antiviral activity against Yellow fever virus 17D by viral yield reduction assay; type: functional, organism-based
dengue virus type 2 [1] = assay: Antiviral activity against Dengue virus type 2 New Guinea C infected in african green monkey Vero cells assessed as inhibition of virus-induced cytopathic effect by viral yield reduction assay; type: functional
[2] = (§1) Therapeutic index, ratio of CC50 for african green monkey Vero cells to EC50 for Dengue virus type 2; type: cell-based; settings: read-out: TI
dengue virus type 2 [3] = assay: Antiviral activity against Dengue virus type 2 New Guinea C infected in african green monkey Vero cells assessed as inhibition of virus-induced cytopathic effect; type: functional, organism-based
dengue virus type 2 [4] = assay: Antiviral activity against Dengue virus type 2 New Guinea C infected in african green monkey Vero cells by neutral red uptake assay; type: functional, organism-based
[5] = as §1; type: cell-based; settings: read-out: TI; remark: listed apart in the source
[6] = Cytotoxicity against african green monkey Vero cells; type: cell-based; settings: chlorocebus sabaeus
[7] = as §1; type: cell-based; settings: read-out: TI; remark: listed apart in the source

O=C(O)c1cnc2c(c1O)c(=O)n(Cc1ccccc1)c(=O)n2Cc1ccccc1
Activity (Yellow fever virus): Active
CC50 (dengue virus type 2 [1]): > 100 µg/mL
EC90 (dengue virus type 2 [1]): 3.8 µg/mL (≈ 9.42 µM)
selectivity ratio [2]: > 18
EC50 (dengue virus type 2 [3]): 5.7 µg/mL (≈ 14.1 µM)
EC50 (dengue virus type 2 [4]): 6.3 µg/mL (≈ 15.6 µM)
selectivity ratio [5]: > 16
CC50 [6]: > 100 µg/mL
selectivity ratio [7]: > 26
